Data on 70 molecules can be found in patent US20130158035A1, “[…] COMPOUNDS” (Brigham Young University, priority 2010, published 2013).

By inhibition is commonly meant the drop in the measured response relative to a control, in per cent.

The subject of the first experiment is MDCK cells. The experiment is described as follows: HGF-induced epithelial-mesenchymal transition / migration of MDCK cells on transwell filters (crystal violet densitometry). The following applies: Canis lupus familiaris, MDCK, 24 h, Table 3, 10 μM compound, then HGF, percentage like untreated controls (unstimulated cells = maximal effect, HGF only = nil). The format is cell-based. How it is done:
MDCK cells were seeded at confluency into the wells of a transwell filter in DMEM with 10% fetal bovine serum. Cells were cultured for 24 hours. Test compounds, dissolved in DMSO, were added to each test well to a 10 μM final concentration, and then hepatocyte growth factor (HGF) was then added. The MDCK cells were cultured for 24 hours. Concurrently, controls treated with and without HGF and with no test compounds were also prepared.
After post-HGF addition culturing, transwell filters were prepared by repeated washing using ice cold PBS. The cells were then fixed with paraformaldehyde (3.7%) on ice for 15 minutes to the filters. After fixation, the transwell filters were washed repeatedly with PBS followed by staining with crystal violet for 15 minutes. The transwell filters were washed again with distilled water.
The upper surface of the transwell filters were swabbed using a cotton-tipped probe. The filters were photographed using a gel documentation system. Densitometry measurements were made on the test samples and compared with control samples.
For the molecule `NC(=O)c1ccccc1/N=C/c1cccc2ccccc12` [Compound A-3], testing at 10 µM gave an inhibition of 87.8%.

On to `NC(=O)c1ccccc1/N=C/c1ccc(Br)s1` [Compound A-12], for which the inhibition at 10 µM stood at 17.5%.

As for `COc1cc(CNc2ccc(N3CCOCC3)c(C(=O)O)c2)cc(Br)c1OC` [Compound A-25], the inhibition at 10 µM was less than 5%.

With `NC(=O)c1ccccc1/N=C/c1cccc(O)c1O` [Compound A-5], at 10 µM the inhibition was 48.8%.

On to `NC(=O)c1ccccc1/N=C/c1cccc(Cl)c1Cl` [Compound A-1], for which the inhibition at 10 µM is 94%.

In turn, `CC(C)c1ccc(/C=N/c2ccccc2C(N)=O)cc1` [Compound A-14] had an inhibition at 10 µM of less than 5%.

The molecule `NC(=O)c1ccccc1/N=C/c1ccc(Cl)cc1Cl` [Compound A-18] showed an inhibition at 10 µM of less than 5%.

`NC(=O)c1ccccc1/N=C/c1cccc(O)c1` [Compound A-8]: 10 µM produced 19.7% inhibition.

`NC(=O)c1ccccc1/N=C/c1cccc(Cl)c1` [Compound A-9] gave an inhibition at 10 µM of 96.4%.

Staying with this experiment, now noted: Canis lupus familiaris, MDCK, 24 h, Table 4, 10 μM compound, then HGF, percentage like untreated controls (unstimulated cells = maximal effect, HGF only = nil).
In the case of `Cc1nc(NC(=O)c2ccc(N3CCCC3)c([N+](=O)[O-])c2)ccc1I` [Compound B-5], at 10 µM the inhibition was 44%.

The molecule `CCOc1ccc(C(=O)Nc2ccc(I)cn2)cc1[N+](=O)[O-]` [Compound B-10] yielded an inhibition at 10 µM of 69.9%.

Turning to `O=C(Nc1ccccn1)c1cccc([N+](=O)[O-])c1` [Compound B-8], the inhibition at 10 µM was 45.3%.

Regarding `Cc1nc(NC(=O)COc2ccc([N+](=O)[O-])cc2)ccc1I` [Compound B-2], at 10 µM the inhibition was 96.9%.

The same experiment, now with this note: Canis lupus familiaris, MDCK, 24 h, Table 5, 10 μM compound, then HGF, percentage like untreated controls (unstimulated cells = maximal effect, HGF only = nil).
`COc1cc(C(=O)Nc2ccc(N(C)C)cc2)cc(OC)c1OC` [Compound B-22] gave an inhibition at 10 µM of more than 5%.

In turn, `COc1cc(C(=O)Nc2ccc(N3CCN(C)CC3)cc2)cc(OC)c1OC` [Compound B-28] returned an inhibition at 10 µM of 13.7%.

For `COc1cc(C(=O)Nc2ccc(N3CCCC3)cc2)cc(OC)c1OC` [Compound B-25], the inhibition at 10 µM is 94.9%.

In the case of `COc1cc(C(=O)Nc2ccc(N3CCCC3=O)cc2)cc(OC)c1OC` [Compound B-24], the inhibition at 10 µM stood at 93.2%.

In turn, `COc1cccc(C(=O)Nc2cccc(C(=O)c3ccccc3)c2)c1` [Compound B-40] showed an inhibition at 10 µM of 93.1%.

With `CC(=O)c1cccc(NC(=O)c2ccc(-c3ccccc3)cc2)c1` [Compound B-16], the inhibition at 10 µM was more than 5%.

Take `O=[N+]([O-])c1cccc(S(=O)(=O)Nc2ccc(Cl)c(Cl)c2)c1` [Compound B-35]: the inhibition at 10 µM was 71.1%.

As to `Cc1cc(NC(=O)c2cccc([N+](=O)[O-])c2C)c(C)cc1I` [Compound B-32], at 10 µM the inhibition was 36.1%.

`NC(=O)c1cccc(NC(=O)c2ccc(-c3ccccc3)cc2)c1` [Compound B-20] yielded an inhibition at 10 µM of 20.6%.

Consider `CCCCOc1ccc(C(=O)Nc2ccc(N3CCCC3=O)cc2)cc1` [Compound B-30], for which testing at 10 µM gave an inhibition of 81.1%.

The same experiment, now with this note: Canis lupus familiaris, MDCK, 24 h, Table 6, 10 μM compound, then HGF, percentage like untreated controls (unstimulated cells = maximal effect, HGF only = nil).
As for `Cc1c(C(=O)OCc2ccccc2)[nH]c2c1C(=O)CC(c1ccco1)C2` (stereo not shown) [Compound C-15], the inhibition at 10 µM is less than 5%.

Molecule `Cc1ccc(COC(=O)c2[nH]c3c(c2C)C(=O)CC(c2cccs2)C3)cc1` (stereo not shown) [Compound C-6] registered an inhibition at 10 µM of 48.4%.

In the case of `Cc1c(C(=O)OCC2CCCO2)[nH]c2c1C(=O)CC(c1cccs1)C2` (stereo not shown) [Compound C-17], at 10 µM the inhibition was 75.7%.

With `Cc1c(C(=O)OC2CCCCC2)[nH]c2c1C(=O)CC(c1cccs1)C2` (stereo not shown) [Compound C-11], the inhibition at 10 µM is less than 5%.

`CCCc1c(C(=O)OCC)[nH]c2c1C(=O)CC(c1cccs1)C2` (stereo not shown) [Compound C-9] gave an inhibition at 10 µM of 15.3%.

Turning to `COC(=O)c1[nH]c2c(c1C)C(=O)CC(c1cccs1)C2` (stereo not shown) [Compound C-3], the inhibition at 10 µM stood at 84.1%.

`CCOC(=O)c1[nH]c2c(c1C)C(=O)CC(c1ccccc1)C2` (stereo not shown) [Compound C-8] showed an inhibition at 10 µM of 30.6%.

Regarding `Cc1c(C(=O)OC2CCCC2)[nH]c2c1C(=O)CC(c1cccs1)C2` (stereo not shown) [Compound C-10], testing at 10 µM gave an inhibition of 8.8%.

In turn, `COC(=O)c1[nH]c2c(c1C)C(=O)CC(c1ccc(OC)cc1)C2` (stereo not shown) [Compound C-16] showed an inhibition at 10 µM of less than 5%.

Staying with this experiment, now noted: Table 1; 10 μM compound, then HGF, 24 hours; percentage like untreated controls (unstimulated cells = maximal effect, HGF only = nil).
For the molecule `O=C1CC(c2cc3c(cc2Br)OCO3)c2cc3c(cc2N1)CCC3` (stereo not shown) [Compound 27], the “Assay Value” is given as 87.2%.

Regarding `COc1ccc(C2CC(=O)Nc3cc4c(cc32)OCCO4)cc1OC` (stereo not shown) [Compound 15], the “Assay Value” came out at 12.9%.

In the case of `CCOc1cc(C2CC(=O)Nc3cc4c(cc32)OCCO4)ccc1O` (stereo not shown) [Compound 18], the “Assay Value” was determined as 15.9%.

For the molecule `CCOc1c(Br)cc(C2CC(=O)Nc3cc4c(cc32)OCCO4)cc1OC` (stereo not shown) [Compound 8], the “Assay Value” was determined as 48.8%.

With `COc1cc2c(c(OC)c1)C(c1cc(OC)ccc1OC)CC(=O)N2` (stereo not shown) [Compound 22], the “Assay Value” is 8.8%.

With `COc1cc(C2CC(=O)Nc3cc4c(cc32)OCCO4)cc(OC)c1OC` (stereo not shown) [Compound 3], the “Assay Value” turned out to be 92.4%.

`CCOc1ccc(Br)cc1C1CC(=O)Nc2cc3c(cc21)OCCO3` (stereo not shown) [Compound 9]: the “Assay Value” was determined as 64.9%.

Staying with this experiment, now noted: Table 2; 10 μM compound, then HGF, 24 hours; percentage like untreated controls (unstimulated cells = maximal effect, HGF only = nil).
In the case of `O=C1CC(c2ccc(OC(F)(F)F)cc2)c2cc3c(cc2N1)OCCO3` (stereo not shown) [Compound 78], the “Assay Value” is less than 5%.

For the molecule `O=C1CC(c2ccccc2)c2cc3c(cc2N1)OCO3` (stereo not shown) [Compound 86], the “Assay Value” is less than 5%.

On to `CC(C)Oc1ccc(C2CC(=O)Nc3cc4c(cc32)OCCO4)cc1` (stereo not shown) [Compound 73], for which the “Assay Value” is given as less than 5%.

For `COc1cc2c(cc1OC)C(c1cccc(C)c1)CC(=O)N2` (stereo not shown) [Compound 64], the “Assay Value” is less than 5%.

As for `O=C1CC(c2ccc(Cl)cc2Cl)c2cc3c(cc2N1)CCC3` (stereo not shown) [Compound 97], the “Assay Value” was less than 5%.

Consider `COc1cccc(C2CC(=O)Nc3cc4c(cc32)OCCO4)c1OC` (stereo not shown) [Compound 46], for which the “Assay Value” is given as less than 5%.

`COc1cc2c(cc1OC)C(c1cc(C)ccc1C)CC(=O)N2` (stereo not shown) [Compound 57]: the “Assay Value” is less than 5%.

As for `O=C1CC(c2ccc([N+](=O)[O-])cc2)c2cc3c(cc2N1)CCC3` (stereo not shown) [Compound 98], the “Assay Value” is on record as less than 5%.

Consider `CCOc1cc2c(cc1OCC)C(c1ccccc1F)CC(=O)N2` (stereo not shown) [Compound 74], for which the “Assay Value” is listed as less than 5%.

Regarding `O=C1CC(c2ccccc2F)c2cc3c(cc2N1)OCCO3` (stereo not shown) [Compound 69], the “Assay Value” is recorded as less than 5%.

Take `CC(C)Oc1ccccc1C1CC(=O)Nc2cc3c(cc21)OCCO3` (stereo not shown) [Compound 50]: the “Assay Value” is less than 5%.

Turning to `O=C1CC(c2ccc3c(c2)OCO3)c2cc3c(cc2N1)OCO3` (stereo not shown) [Compound 88], the “Assay Value” is reported as less than 5%.

Consider `O=C1CC(c2cccc(OCc3ccccc3)c2)c2cc3c(cc2N1)OCCO3` (stereo not shown) [Compound 58], for which the “Assay Value” was less than 5%.

On to `COc1ccccc1C1CC(=O)Nc2cc(C)c(C)cc21` (stereo not shown) [Compound 34], for which the “Assay Value” is reported as less than 5%.

On to `CCOc1c(Br)cc(C2CC(=O)Nc3cc(OC)c(OC)cc32)cc1OC` (stereo not shown) [Compound 39], for which the “Assay Value” is less than 5%.

On to `COc1cc2c(cc1OC)C(c1ccccc1OCc1ccccc1)CC(=O)N2` (stereo not shown) [Compound 42], for which the “Assay Value” was less than 5%.

In the case of `COc1cc(C2CC(=O)Nc3cc4c(cc32)OCCO4)ccc1OCc1ccccc1` (stereo not shown) [Compound 70], the “Assay Value” is less than 5%.

As to `O=C1CC(c2ccc(F)cc2F)c2cc3c(cc2N1)OCO3` (stereo not shown) [Compound 82], the “Assay Value” is given as less than 5%.

In the case of `COc1cc2c(cc1OC)C(c1ccc(Cl)cc1)CC(=O)N2` (stereo not shown) [Compound 55], the “Assay Value” was less than 5%.

Regarding `O=C1CC(c2ccccc2C(F)(F)F)c2cc3c(cc2N1)CCC3` (stereo not shown) [Compound 94], the “Assay Value” is less than 5%.

For `COc1cc2c(cc1OC)C(c1cccc(Cl)c1)CC(=O)N2` (stereo not shown) [Compound 41], the “Assay Value” is listed as less than 5%.

As for `COc1c(O)cccc1C1CC(=O)Nc2cc3c(cc21)OCO3` (stereo not shown) [Compound 90], the “Assay Value” was less than 5%.

Regarding `O=C1CC(c2ccc(Cl)c(Cl)c2)c2cc3c(cc2N1)OCCO3` (stereo not shown) [Compound 51], the “Assay Value” was less than 5%.

`Cc1cccc(C2CC(=O)Nc3cc4c(cc32)OCO4)c1` (stereo not shown) [Compound 85]: the “Assay Value” is less than 5%.

As to `CC(C)c1ccc(C2CC(=O)Nc3cc4c(cc32)OCO4)cc1` (stereo not shown) [Compound 71], the “Assay Value” is less than 5%.

For the molecule `O=C1CC(c2ccccc2OCc2ccccc2)c2cc3c(cc2N1)OCCO3` (stereo not shown) [Compound 56], the “Assay Value” was less than 5%.

`O=C1CC(c2cccc(Br)c2)c2cc3c(cc2N1)CCC3` (stereo not shown) [Compound 95]: the “Assay Value” was less than 5%.

Staying with this experiment, now noted: Table 3; 10 μM compound, then HGF, 24 hours; percentage like untreated controls (unstimulated cells = maximal effect, HGF only = nil).
As for `COc1cc(CNc2ccc(C)c(Cl)c2)cc(Cl)c1OC` [Compound A-26], the “Assay Value” was less than 5%.

Turning to `COc1cc(CNc2ccc(C)c(Cl)c2)cc(Cl)c1OC` [Compound A-21], the “Assay Value” is recorded as 57.5%.

For the molecule `NC(=O)c1ccccc1/N=C/c1ccc2ccccc2c1` [Compound A-16], the “Assay Value” was less than 5%.

Still in this experiment, the particulars now being: Table 6; 10 μM compound, then HGF, 24 hours; percentage like untreated controls (unstimulated cells = maximal effect, HGF only = nil).
For `Cc1c(C(=O)OC2CCCC2C)[nH]c2c1C(=O)CC(c1cccs1)C2` (stereo not shown) [Compound C-12], the “Assay Value” was less than 5%.
